Laboratory results published in patent US20080280862A1, “Methods, compositions, and kits for the treatment of pain” (priority 2007, published 2008).

Columns and labels:
[1] = test system: carrageenan-induced pain model in rats; assay: Carrageenan pain model, mechanical allodynia by Von Frey filaments; format: in vivo, Sprague-Dawley rats; conditions: for Mean AUC ± SEM: AUC from 20 minutes through 120 minutes following carrageenan injection; for mean change from baseline: Table 4
Experimental: The carrageenan model is a fast, reliable model used to assess the ability of analgesics to block inflammatory pain. The analgesic effects of test article combinations on pain generation are assayed using the carrageenan-induced pain model in rats. Adult male Sprague-Dawley rats are administered study drugs intraperitoneally (vehicle, tricyclic compound (TCA), steroid or TCA/Steroid test article combinations) once daily for 2 days (day −2 and day −1) and 30 minutes prior to the carrageenan injection on day 0 (time=0). For the carrageenan injection, animals are lightly anesthetized and 0.1 ml of 2% carrageenan is injected into the plantar surface of the right hind paw. The positive control diclofenac at a dose of 25 mg/kg is administered intraperitoneally immediately before the carrageenan injection. Paw volumes (right and left) are measured using a plathysmometer before drug administration on day −2 and serve as a baseline measurement. The paw volumes are measured again two hours post carrageenan injection. The degree of mechanical allodynia is measured by a blinded observer using Von Frey filaments applied to the plantar surface of the hind paws in an increasing numerical order. Each filament increases the force applied on the paw. The filaments are applied until animal paw withdrawal is achieved. This procedure is carried out before drug administration (day −2), on day −1 and on day 0 at time=0, 20, 40, 60, 80 and 120 minutes post-carrageenan. The force (expressed in grams) required for paw withdrawal after carrageenan injection is subtracted from the force required for paw withdrawal before carrageenan injection. Results are expressed as mean change from baseline across five timepoints post carrageenan injection in Table 4.
For a synergy calculation, experimental data from the carrageenan study are fitted to a median-effect model and used to calculate the parameters' median-effect dose (Dm), slope (m), correlation coefficient (r), combination index (CI) and dose-reduction index (DRI). In addition, the probability of pain inhibition occurring after single-component (nortriptyline) versus the combination drug treatments are calculated from the negative change from baseline data using a Bayesian sensitivity analysis. The likelihood of pain inhibition is characterized for nortriptyline administered alone (1 mg/kg or 3 mg/kg) versus the fixed-dose combination treatments [prednisolone (0.3 mg/kg):nortriptyline (1 mg/kg) or prednisolone (1 mg/kg):nortriptyline (3 mg/kg)] each evaluated at 60 and 80 minutes for analgesic effect.
In another example, the effects of test article combinations on pain inhibition were assayed using the carrageenan model in rodents. Desipramine was tested alone and in combination at 0.3, 1, and 3 mg/kg and prednisolone was tested similarly at 0.3, 1 and 3 mg/kg IP.

[2] = test system: acetic acid-induced pain model in mice; assay: Acetic acid pain model, writhes; format: in vivo, ICR mice
Experimental: The acetic acid is a reliable fast model for noxious/visceral pain usually used for screening potential drug candidates for their analgesic activity. The effects of test article combinations on pain generation are assayed using the acetic acid-induced pain model in mice. Adult male ICR mice are administered study drugs intraperitoneally (vehicle, TCA, steroid or TCA/Steroid test article combinations) once daily for 2 days (day −2 and day −1) and 30 minutes prior to the acetic acid injection on day 0 (time=0). […] To elicit a pain response, dilute acetic acid (10 ml/kg of 0.6% solution) is injected intraperitoneally into the abdomen. The animal is placed in an observation chamber, and 5 minutes after acetic acid administration, the number of writhes is counted and recorded over a five minute period by a blinded observer. A writhe is considered as a contraction of the abdominal muscles accompanied by an elongation of the body and extension of the hind limb. Results are expressed as number of writhes.

[3] = Experiment Two, first set of rows, 3 mg/kg, 20 minutes
[4] = Experiment Two, first set of rows, 3 mg/kg, 40 minutes
[5] = Experiment Two, first set of rows, 3 mg/kg, 60 minutes
[6] = Experiment Two, first set of rows, 3 mg/kg, 80 minutes
[7] = Experiment Two, first set of rows, 3 mg/kg, 120 minutes

CN(C)CCC=C1c2ccccc2CCc2ccccc21 [Amitriptyline]
Mean change from baseline ± SEM ([1]; Experiment One, 1 mg/kg, 20 minutes): 3.40 ± 3.40 g | Mean change from baseline ± SEM ([1]; Experiment One, 1 mg/kg, 40 minutes): -49.80 ± 5.19 g | Mean change from baseline ± SEM ([1]; Experiment One, 1 mg/kg, 60 minutes): -113.80 ± 7.21 g | Mean change from baseline ± SEM ([1]; Experiment One, 1 mg/kg, 80 minutes): -177.80 ± 10.44 g | Mean change from baseline ± SEM ([1]; Experiment One, 1 mg/kg, 120 minutes): -231.00 ± 12.33 g | Mean change from baseline ± SEM ([1]; Experiment One, 3 mg/kg, 20 minutes): 11.40 ± 5.82 g | Mean change from baseline ± SEM ([1]; Experiment One, 3 mg/kg, 40 minutes): -56.60 ± 9.09 g | Mean change from baseline ± SEM ([1]; Experiment One, 3 mg/kg, 60 minutes): -120.60 ± 11.72 g | Mean change from baseline ± SEM ([1]; Experiment One, 3 mg/kg, 80 minutes): -173.80 ± 9.90 g | Mean change from baseline ± SEM ([1]; Experiment One, 3 mg/kg, 120 minutes): -192.10 ± 10.67 g | Mean change from baseline ± SEM ([1]; Experiment One, 10 mg/kg, 20 minutes): 11.30 ± 5.83 g | Mean change from baseline ± SEM ([1]; Experiment One, 10 mg/kg, 40 minutes): -41.90 ± 9.86 g | Mean change from baseline ± SEM ([1]; Experiment One, 10 mg/kg, 60 minutes): -99.10 ± 11.33 g | Mean change from baseline ± SEM ([1]; Experiment One, 10 mg/kg, 80 minutes): -148.90 ± 12.63 g | Mean change from baseline ± SEM ([1]; Experiment One, 10 mg/kg, 120 minutes): -177.70 ± 16.01 g | Mean change from baseline ± SEM ([1]; Experiment One, 20 mg/kg, 20 minutes): 19.90 ± 6.68 g | Mean change from baseline ± SEM ([1]; Experiment One, 20 mg/kg, 40 minutes): -33.30 ± 7.80 g | Mean change from baseline ± SEM ([1]; Experiment One, 20 mg/kg, 60 minutes): -93.30 ± 7.80 g | Mean change from baseline ± SEM ([1]; Experiment One, 20 mg/kg, 80 minutes): -138.60 ± 6.03 g | Mean change from baseline ± SEM [1, 3]: -2.20 ± 3.62 g | Mean change from baseline ± SEM [1, 4]: -6.19 ± 5.21 g | Mean change from baseline ± SEM [1, 5]: -1.60 ± 3.83 g | Mean change from baseline ± SEM [1, 6]: 15.70 ± 5.20 g | Mean change from baseline ± SEM [1, 7]: 26.61 ± 4.90 g | Mean # of writhes per 5 minutes ± SEM ([2]; 1 mg/kg ip): 8.71 ± 2.44 | Mean # of writhes per 5 minutes ± SEM ([2]; 3 mg/kg ip): 11.62 ± 2.94 | Mean # of writhes per 5 minutes ± SEM ([2]; 5 mg/kg ip): 4.50 ± 2.04 | Mean # of writhes per 5 minutes ± SEM ([2]; 10 mg/kg ip): 0.79 ± 0.79

CNCCC=C1c2ccccc2CCc2ccccc21 [Nortriptyline]
Mean AUC ± SEM ([1]; 1 mg/Kg): 1895 ± 547.01 | Mean AUC ± SEM ([1]; 3 mg/Kg): 3082 ± 275.81 | Mean change from baseline ± SEM ([1]; Experiment Two, first set of rows, 1 mg/kg, 20 minutes): 16.94 ± 7.35 g | Mean change from baseline ± SEM ([1]; Experiment Two, first set of rows, 1 mg/kg, 40 minutes): 17.01 ± 7.37 g | Mean change from baseline ± SEM ([1]; Experiment Two, first set of rows, 1 mg/kg, 60 minutes): 22.36 ± 4.36 g | Mean change from baseline ± SEM ([1]; Experiment Two, first set of rows, 1 mg/kg, 80 minutes): 29.59 ± 4.80 g | Mean change from baseline ± SEM ([1]; Experiment Two, first set of rows, 1 mg/kg, 120 minutes): 37.64 ± 5.20 g | Mean change from baseline ± SEM [1, 3]: 5.83 ± 6.21 g | Mean change from baseline ± SEM [1, 4]: 5.83 ± 6.21 g | Mean change from baseline ± SEM [1, 5]: 12.87 ± 5.09 g | Mean change from baseline ± SEM [1, 6]: 15.84 ± 5.10 g | Mean change from baseline ± SEM [1, 7]: 35.98 ± 4.09 g | Mean change from baseline ± SEM ([1]; Experiment Two, second set of rows, 1 mg/kg, 20 minutes): 17.00 ± 6.43 g | Mean change from baseline ± SEM ([1]; Experiment Two, second set of rows, 1 mg/kg, 40 minutes): -4.25 ± 4.25 g | Mean change from baseline ± SEM ([1]; Experiment Two, second set of rows, 1 mg/kg, 60 minutes): 32.50 ± 4.96 g | Mean change from baseline ± SEM ([1]; Experiment Two, second set of rows, 1 mg/kg, 80 minutes): 29.75 ± 4.25 g | Mean change from baseline ± SEM ([1]; Experiment Two, second set of rows, 1 mg/kg, 120 minutes): 33.88 ± 5.21 g | Mean change from baseline ± SEM ([1]; Experiment Two, second set of rows, 3 mg/kg, 20 minutes): 17.00 ± 6.43 g | Mean change from baseline ± SEM ([1]; Experiment Two, second set of rows, 3 mg/kg, 40 minutes): 0.00 ± 6.43 g | Mean change from baseline ± SEM ([1]; Experiment Two, second set of rows, 3 mg/kg, 60 minutes): 17.00 ± 6.43 g | Mean change from baseline ± SEM ([1]; Experiment Two, second set of rows, 3 mg/kg, 80 minutes): 0.00 ± 0.00 g | Mean change from baseline ± SEM ([1]; Experiment Two, second set of rows, 3 mg/kg, 120 minutes): 0.00 ± 0.00 g | mean change from baseline ([1]; 1 mg/kg ip, 20 minutes post carrageenan): 25.50 ± 7.90 grams | mean change from baseline ([1]; 1 mg/kg ip, 40 minutes post carrageenan): −4.70 ± 8.13 grams | mean change from baseline ([1]; 1 mg/kg ip, 60 minutes post carrageenan): −59.30 ± 10.6 grams | mean change from baseline ([1]; 1 mg/kg ip, 80 minutes post carrageenan): −99.70 ± 13.75 grams | mean change from baseline ([1]; 1 mg/kg ip, 120 minutes post carrageenan): −146.90 ± 19.62 grams | mean change from baseline ([1]; 3 mg/kg ip, 20 minutes post carrageenan): 7.40 ± 10.10 grams | mean change from baseline ([1]; 3 mg/kg ip, 40 minutes post carrageenan): −49.20 ± 11.54 grams | mean change from baseline ([1]; 3 mg/kg ip, 60 minutes post carrageenan): −109.20 ± 11.54 grams | mean change from baseline ([1]; 3 mg/kg ip, 80 minutes post carrageenan): −169.20 ± 11.54 grams | mean change from baseline ([1]; 3 mg/kg ip, 120 minutes post carrageenan): −205.40 ± 11.35 grams | mean change from baseline ([1]; 10 mg/kg ip, 20 minutes post carrageenan): −4.00 ± 8.20 grams | mean change from baseline ([1]; 10 mg/kg ip, 40 minutes post carrageenan): −68.60 ± 10.46 grams | mean change from baseline ([1]; 10 mg/kg ip, 60 minutes post carrageenan): −112.80 ± 13.51 grams | mean change from baseline ([1]; 10 mg/kg ip, 80 minutes post carrageenan): −157.00 ± 17.21 grams | mean change from baseline ([1]; 10 mg/kg ip, 120 minutes post carrageenan): −185.80 ± 20.18 grams | mean change from baseline ([1]; 20 mg/kg ip, 20 minutes post carrageenan): −17.60 ± 5.89 grams | mean change from baseline ([1]; 20 mg/kg ip, 40 minutes post carrageenan): −74.20 ± 7.72 grams | mean change from baseline ([1]; 20 mg/kg ip, 60 minutes post carrageenan): −130.80 ± 10.37 grams | mean change from baseline ([1]; 20 mg/kg ip, 80 minutes post carrageenan): −190.80 ± 10.37 grams | mean change from baseline ([1]; 20 mg/kg ip, 120 minutes post carrageenan): −255.40 ± 14.97 grams | decrease of median-effect dose (Dm) after co-administration compared to the monotherapy ([1]; median-effect model, prednisolone/nortriptyline 1:3 fixed ratios): 4 fold | Mean # of writhes per 5 minutes ± SEM ([2]; 1 mg/kg ip): 11.78 ± 3.44 | Mean # of writhes per 5 minutes ± SEM ([2]; 5 mg/kg ip): 7.79 ± 3.81 | Mean # of writhes per 5 minutes ± SEM ([2]; 10 mg/kg ip): 7.57 ± 2.53 | Mean # of writhes per 5 minutes ± SEM ([2]; 15 mg/kg ip): 2.07 ± 1.42
